Measured values taken from PubChem BioAssay (NCI).
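Five compound concentrations were applied to cells in 96-well plates for 48 hours; endpoints were derived by simple linear interpolation of the resulting dose-response curve. GI50 marks 50% less growth. TGI is the concentration that stops growth completely.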

Columns and labels:
Test in all cases: DTP human tumour cell line panel, 48 h
OVCAR-4 ovarian = tested on: OVCAR-4 ovarian
KM12 colon = tested on: KM12 colon
786-0 renal = tested on: 786-0 renal
HS 578T breast = tested on: HS 578T breast
RXF 393 renal = tested on: RXF 393 renal
PC-3 prostate = tested on: PC-3 prostate
NCI-H522 lung = tested on: NCI-H522 lung
HCT-116 colon = tested on: HCT-116 colon
OVCAR-3 ovarian = tested on: OVCAR-3 ovarian
A549 NSCLC = tested on: A549 NSCLC
HL-60(TB) leukemia = tested on: HL-60(TB) leukemia
SK-MEL-2 melanoma = tested on: SK-MEL-2 melanoma
IGROV1 ovarian = tested on: IGROV1 ovarian
OVCAR-5 ovarian = tested on: OVCAR-5 ovarian
CAKI-1 renal = tested on: CAKI-1 renal
MDA-MB-435 = tested on: MDA-MB-435
T-47D breast = tested on: T-47D breast
UACC-62 melanoma = tested on: UACC-62 melanoma
OVCAR-8 ovarian = tested on: OVCAR-8 ovarian
RPMI-8226 leukemia = tested on: RPMI-8226 leukemia
HT29 colon = tested on: HT29 colon
M14 melanoma = tested on: M14 melanoma
HOP-62 NSCLC = tested on: HOP-62 NSCLC
NCI-H226 lung = tested on: NCI-H226 lung
SNB-19 CNS = tested on: SNB-19 CNS
SF-539 CNS = tested on: SF-539 CNS
UO-31 renal = tested on: UO-31 renal
K-562 leukemia = tested on: K-562 leukemia
UACC-257 melanoma = tested on: UACC-257 melanoma
A498 renal = tested on: A498 renal

In the case of `O=C1/C(=C/c2ccc(F)c(F)c2)CN(C(=O)C(Cl)Cl)C/C1=C\c1ccc(F)c(F)c1`, the TGI (OVCAR-4 ovarian) is reported as 1.24 µM, the GI50 (KM12 colon) is reported as 0.0497 µM and the TGI (KM12 colon) is reported as 0.2 µM. For the same compound, the GI50 (786-0 renal) was 0.181 µM, the TGI (786-0 renal) was 0.357 µM and the GI50 (HS 578T breast) was 0.261 µM. For the same compound, the TGI (HS 578T breast) was 1.01 µM, the GI50 (RXF 393 renal) was 0.182 µM and the TGI (RXF 393 renal) was 0.399 µM. For the same compound, the GI50 (PC-3 prostate) was 0.0477 µM, the TGI (PC-3 prostate) was 0.273 µM and the GI50 (NCI-H522 lung) was 0.166 µM. The TGI (NCI-H522 lung) was 0.503 µM, the GI50 (HCT-116 colon) was 0.0326 µM and the TGI (HCT-116 colon) was 0.12 µM. For the same compound, the GI50 (OVCAR-3 ovarian) was 0.0709 µM, the TGI (OVCAR-3 ovarian) was 0.234 µM and the GI50 (A549 NSCLC) was 0.262 µM. It also gave a TGI (A549 NSCLC) of 1.09 µM, a GI50 (HL-60(TB) leukemia) of 0.113 µM and a TGI (HL-60(TB) leukemia) of 0.97 µM. The GI50 (SK-MEL-2 melanoma) was 0.262 µM, the TGI (SK-MEL-2 melanoma) was 0.785 µM and the GI50 (IGROV1 ovarian) was 0.0609 µM. For the same compound, the TGI (IGROV1 ovarian) was 0.264 µM, the GI50 (OVCAR-5 ovarian) was 0.167 µM and the TGI (OVCAR-5 ovarian) was 0.421 µM. The GI50 (CAKI-1 renal) was 0.188 µM, the TGI (CAKI-1 renal) was 0.551 µM and the GI50 (MDA-MB-435) was 0.142 µM. The TGI (MDA-MB-435) was 0.324 µM, the GI50 (T-47D breast) was 0.302 µM and the TGI (T-47D breast) was 2.05 µM. For the same compound, the GI50 (UACC-62 melanoma) was 0.172 µM, the TGI (UACC-62 melanoma) was 0.365 µM and the GI50 (OVCAR-8 ovarian) was 0.0564 µM. It also gave a TGI (OVCAR-8 ovarian) of 1.31 µM, a GI50 (RPMI-8226 leukemia) of 0.0186 µM and a TGI (RPMI-8226 leukemia) of 0.0871 µM. For the same compound, the GI50 (HT29 colon) was 0.0359 µM, the GI50 (M14 melanoma) was 0.168 µM and the TGI (M14 melanoma) was 0.515 µM. The GI50 (HOP-62 NSCLC) was 0.239 µM, the TGI (HOP-62 NSCLC) was 0.745 µM and the GI50 (NCI-H226 lung) was 1.13 µM. The TGI (NCI-H226 lung) was 5.72 µM, the GI50 (SNB-19 CNS) was 0.0782 µM and the TGI (SNB-19 CNS) was 0.274 µM. It also gave a GI50 (SF-539 CNS) of 0.094 µM, a TGI (SF-539 CNS) of 0.276 µM and a GI50 (UO-31 renal) of 0.0982 µM. For the same compound, the TGI (UO-31 renal) was 0.238 µM, the GI50 (K-562 leukemia) was 0.0235 µM and the TGI (K-562 leukemia) was > 100 µM. It also gave a GI50 (UACC-257 melanoma) of 0.259 µM, a TGI (UACC-257 melanoma) of 0.888 µM and a GI50 (A498 renal) of 0.183 µM. For the same compound, the TGI (A498 renal) was 0.55 µM.
